Tests used:
DYRK1B = DYRK1B (Homo sapiens, UniProt Q9Y463); assay: In vitro kinase assay, substrate DYRKtide-F; format: biochemical; set-up: full-length human recombinant kinases were expressed using a baculovirus expression system as amino-terminal GST-fusion proteins; GST (N); purchased Carna Biosciences; host or cells: baculovirus expression system; conditions: 50 μM ATP, 1 μM DYRKtide-F
Excerpt: (§1) Detailed information on the assay conditions is available on the website of Carna Biosciences (http://www.carnabio.com/english/index.html; Kobe, Japan). In brief, full-length human recombinant kinases were expressed using a baculovirus expression system as amino-terminal GST-fusion proteins, and purified by glutathione-Sepharose chromatography. The GenBank accession numbers of DYRK1A, DYRK1B, DYRK2, and DYRK3 were NP_001387.2, NP_004705.1, NP_003574.1, and NP_003573.2. […] For each compound, a DMSO solution was diluted in assay buffer to yield a final concentration of 1% DMSO. After incubation for one hour at room temperature, substrate phosphorylation was analyzed by electrophoretic separation of the substrate and products using a Caliper LC3000 platform (Caliper Life Sciences, Mountain View, CA, USA). The phosphorylated product (P)/(P + substrate) ratio was calculated at each concentration of each small molecule and the percent inhibition was expressed relative to a control assay in the absence of the small molecule. […] The IC50 of each compound was calculated by interpolation on a log-concentration-response curve fitted with a four-parameter logistic equation.

DYRK1A = DYRK1A (Homo sapiens, UniProt Q13627); assay: In vitro kinase assay, substrate DYRKtide-F; format: biochemical; set-up: full-length human recombinant kinases were expressed using a baculovirus expression system as amino-terminal GST-fusion proteins; GST (N); purchased Carna Biosciences; host or cells: baculovirus expression system; conditions: 25 μM ATP, 1 μM DYRKtide-F; read-out: IC50, substrate phosphorylation
Excerpt: as §1

CaMK2γ = biological target: T1, CaMK2γ (Homo sapiens, UniProt Q13555); assay: Kinase panel, CaNDY 1 µM; format: biochemical; conditions: CaNDY 1 µM relative to DMSO
T1 construct: purchased Carna Biosciences

IRAK1 = biological target: T2, IRAK1 (Homo sapiens, UniProt P51617); assay: Kinase panel, CaNDY 1 µM; format: biochemical; conditions: CaNDY 1 µM relative to DMSO
T2 construct: purchased Carna Biosciences
T2 sequence (P51617 whole entry): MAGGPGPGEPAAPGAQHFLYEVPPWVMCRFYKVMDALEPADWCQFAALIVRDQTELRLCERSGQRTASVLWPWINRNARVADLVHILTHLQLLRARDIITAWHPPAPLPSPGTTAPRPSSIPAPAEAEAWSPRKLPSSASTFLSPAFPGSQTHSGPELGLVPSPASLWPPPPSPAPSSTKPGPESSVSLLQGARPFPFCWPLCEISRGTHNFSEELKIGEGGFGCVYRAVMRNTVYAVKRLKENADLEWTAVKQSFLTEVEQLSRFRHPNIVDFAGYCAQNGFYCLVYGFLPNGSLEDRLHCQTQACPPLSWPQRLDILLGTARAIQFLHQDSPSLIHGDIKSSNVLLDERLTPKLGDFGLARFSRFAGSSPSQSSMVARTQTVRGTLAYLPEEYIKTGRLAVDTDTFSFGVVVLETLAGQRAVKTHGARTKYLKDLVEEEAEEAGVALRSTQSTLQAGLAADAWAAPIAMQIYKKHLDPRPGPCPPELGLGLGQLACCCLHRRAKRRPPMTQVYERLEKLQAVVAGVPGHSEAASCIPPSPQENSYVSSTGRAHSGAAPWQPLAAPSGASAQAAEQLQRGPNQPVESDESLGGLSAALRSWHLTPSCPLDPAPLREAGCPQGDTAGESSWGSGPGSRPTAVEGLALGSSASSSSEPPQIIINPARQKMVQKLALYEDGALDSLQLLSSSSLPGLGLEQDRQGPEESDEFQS

CDC37-nanoKAZ = assay: Luminescence activity of CDC37-nanoKAZ in total cell lysates; format: cell-based; conditions: counter-test, same concentrations as interaction assay
Procedure: The luminescence activity of the cell lysates was determined using a Centro LB 960 Microplate Luminometer (Berthold Technologies, Bad Wildbad, Germany). A reaction mixture containing bis-coelenterazine (final concentration of 0.1–1 μg/100 μL) in PBS containing 0.02% Tween20 and 20 mM EDTA was injected. The luminescence intensity was recorded at 0.1 s intervals for 10 s or 10 min. The maximum luminescence intensity (Imax), represented in relative luminescence units (rlu), was used in the study.
Targeting the DYRK1A/CDC37 complex
(a-d) Luminescence intensities of total cell lysates of cells treated with the indicated […]
Figure 4. Luminescence intensities at each concentration are shown as fold-changes relative to that at 0 nM. Points are means ± SD (n = 3).
(1 picture or pasted object on this page, not shown here)
Luminescence intensities of total cell lysates of cells treated with the indicated concentrations of CaNDY, as also used in Figure 5c. Luminescence intensities at each concentration are shown as fold-changes to that at 0 nM. Points are means ± SD (n = 3).

CRIK = biological target: T3, CRIK (Homo sapiens, UniProt O14578); assay: Kinase panel, CaNDY 1 µM; format: biochemical; conditions: CaNDY 1 µM relative to DMSO
T3 construct: purchased Carna Biosciences

MSK1 = biological target: T4, MSK1 (Homo sapiens, UniProt O75582); assay: Kinase panel, CaNDY 1 µM; format: biochemical; conditions: CaNDY 1 µM relative to DMSO
T4 construct: purchased Carna Biosciences
T4 sequence (O75582 whole entry): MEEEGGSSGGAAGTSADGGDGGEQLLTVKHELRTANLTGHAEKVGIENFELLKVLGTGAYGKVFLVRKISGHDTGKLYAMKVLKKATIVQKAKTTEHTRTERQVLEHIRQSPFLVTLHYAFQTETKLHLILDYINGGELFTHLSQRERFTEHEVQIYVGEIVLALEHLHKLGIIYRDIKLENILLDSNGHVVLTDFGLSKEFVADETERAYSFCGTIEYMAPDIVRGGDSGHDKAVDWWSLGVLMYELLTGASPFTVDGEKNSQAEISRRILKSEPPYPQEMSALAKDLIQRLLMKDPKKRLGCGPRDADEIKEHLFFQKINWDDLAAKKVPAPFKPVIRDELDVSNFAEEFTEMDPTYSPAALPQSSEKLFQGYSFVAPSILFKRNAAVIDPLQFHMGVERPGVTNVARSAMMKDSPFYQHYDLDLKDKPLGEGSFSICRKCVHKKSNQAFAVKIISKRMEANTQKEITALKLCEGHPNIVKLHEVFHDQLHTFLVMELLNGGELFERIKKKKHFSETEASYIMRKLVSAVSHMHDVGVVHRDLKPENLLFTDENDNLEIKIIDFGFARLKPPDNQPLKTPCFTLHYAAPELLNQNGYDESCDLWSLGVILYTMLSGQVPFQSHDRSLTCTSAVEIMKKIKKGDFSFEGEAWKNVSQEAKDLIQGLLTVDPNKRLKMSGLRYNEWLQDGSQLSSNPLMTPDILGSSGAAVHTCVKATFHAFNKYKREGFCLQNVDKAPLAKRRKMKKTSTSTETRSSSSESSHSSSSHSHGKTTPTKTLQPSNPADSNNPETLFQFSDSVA

MAP3K2_Cascade = biological target: T5, MAP3K2_Cascade (Homo sapiens, UniProt Q9Y2U5); assay: Kinase panel, CaNDY 1 µM; format: biochemical; conditions: CaNDY 1 µM relative to DMSO
T5 construct: purchased Carna Biosciences

CaMK1δ = biological target: T6, CaMK1δ (Homo sapiens, UniProt Q8IU85); assay: Kinase panel, CaNDY 1 µM; format: biochemical; conditions: CaNDY 1 µM relative to DMSO
T6 construct: purchased Carna Biosciences

MAP3K4_Cascade = biological target: T7, MAP3K4_Cascade (Homo sapiens, UniProt Q9Y6R4); assay: Kinase panel, CaNDY 1 µM; format: biochemical; conditions: CaNDY 1 µM relative to DMSO
T7 construct: purchased Carna Biosciences
T7 sequence (Q9Y6R4 whole entry): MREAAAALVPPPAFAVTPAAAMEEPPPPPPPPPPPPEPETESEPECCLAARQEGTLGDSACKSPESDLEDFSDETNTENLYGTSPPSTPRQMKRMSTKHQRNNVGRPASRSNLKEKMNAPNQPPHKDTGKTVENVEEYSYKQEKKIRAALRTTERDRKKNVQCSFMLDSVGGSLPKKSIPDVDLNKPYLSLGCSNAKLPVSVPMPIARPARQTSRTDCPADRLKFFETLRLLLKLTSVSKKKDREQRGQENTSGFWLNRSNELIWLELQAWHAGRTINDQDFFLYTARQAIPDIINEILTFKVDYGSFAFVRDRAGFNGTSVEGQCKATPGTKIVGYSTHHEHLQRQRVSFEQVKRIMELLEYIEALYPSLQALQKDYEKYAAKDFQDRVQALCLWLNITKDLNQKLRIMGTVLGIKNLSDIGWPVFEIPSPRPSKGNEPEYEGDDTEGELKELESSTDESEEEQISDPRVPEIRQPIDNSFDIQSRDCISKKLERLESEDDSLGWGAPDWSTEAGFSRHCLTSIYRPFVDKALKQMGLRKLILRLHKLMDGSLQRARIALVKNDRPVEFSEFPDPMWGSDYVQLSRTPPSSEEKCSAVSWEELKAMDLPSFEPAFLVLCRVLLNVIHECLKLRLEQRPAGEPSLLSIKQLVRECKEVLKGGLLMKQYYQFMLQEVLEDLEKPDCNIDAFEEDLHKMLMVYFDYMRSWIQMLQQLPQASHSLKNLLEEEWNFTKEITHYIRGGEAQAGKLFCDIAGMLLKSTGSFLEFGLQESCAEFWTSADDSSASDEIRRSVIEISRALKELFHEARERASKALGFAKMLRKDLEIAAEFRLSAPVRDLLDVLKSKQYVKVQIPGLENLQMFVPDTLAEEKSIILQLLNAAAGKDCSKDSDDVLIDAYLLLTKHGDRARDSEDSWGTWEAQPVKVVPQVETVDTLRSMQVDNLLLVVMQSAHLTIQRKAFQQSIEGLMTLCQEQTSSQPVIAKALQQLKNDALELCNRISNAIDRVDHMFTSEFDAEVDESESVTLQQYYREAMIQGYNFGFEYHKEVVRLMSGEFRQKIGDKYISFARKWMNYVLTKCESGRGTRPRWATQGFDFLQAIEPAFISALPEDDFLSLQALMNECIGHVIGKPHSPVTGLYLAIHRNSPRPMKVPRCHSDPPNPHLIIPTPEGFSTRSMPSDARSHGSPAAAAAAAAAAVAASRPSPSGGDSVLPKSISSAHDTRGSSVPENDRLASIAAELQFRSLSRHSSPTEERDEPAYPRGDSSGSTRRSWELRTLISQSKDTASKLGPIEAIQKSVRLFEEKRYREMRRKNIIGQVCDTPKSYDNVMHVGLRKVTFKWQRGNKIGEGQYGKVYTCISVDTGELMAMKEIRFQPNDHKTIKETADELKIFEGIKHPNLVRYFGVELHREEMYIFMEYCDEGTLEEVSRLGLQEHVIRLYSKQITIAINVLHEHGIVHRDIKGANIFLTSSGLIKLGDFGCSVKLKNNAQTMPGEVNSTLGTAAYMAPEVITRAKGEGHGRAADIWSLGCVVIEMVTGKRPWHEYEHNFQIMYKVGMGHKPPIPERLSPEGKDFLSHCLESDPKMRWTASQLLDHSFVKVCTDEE

MAP2K2_Cascade = biological target: T8, MAP2K2_Cascade (Homo sapiens, UniProt P36507); assay: Kinase panel, CaNDY 1 µM; format: biochemical; conditions: CaNDY 1 µM relative to DMSO
T8 construct: purchased Carna Biosciences

HIPK3 = biological target: T9, HIPK3 (Homo sapiens, UniProt Q9H422); assay: Kinase panel, CaNDY 1 µM; format: biochemical; conditions: CaNDY 1 µM relative to DMSO
T9 construct: purchased Carna Biosciences
T9 sequence (Q9H422 whole entry): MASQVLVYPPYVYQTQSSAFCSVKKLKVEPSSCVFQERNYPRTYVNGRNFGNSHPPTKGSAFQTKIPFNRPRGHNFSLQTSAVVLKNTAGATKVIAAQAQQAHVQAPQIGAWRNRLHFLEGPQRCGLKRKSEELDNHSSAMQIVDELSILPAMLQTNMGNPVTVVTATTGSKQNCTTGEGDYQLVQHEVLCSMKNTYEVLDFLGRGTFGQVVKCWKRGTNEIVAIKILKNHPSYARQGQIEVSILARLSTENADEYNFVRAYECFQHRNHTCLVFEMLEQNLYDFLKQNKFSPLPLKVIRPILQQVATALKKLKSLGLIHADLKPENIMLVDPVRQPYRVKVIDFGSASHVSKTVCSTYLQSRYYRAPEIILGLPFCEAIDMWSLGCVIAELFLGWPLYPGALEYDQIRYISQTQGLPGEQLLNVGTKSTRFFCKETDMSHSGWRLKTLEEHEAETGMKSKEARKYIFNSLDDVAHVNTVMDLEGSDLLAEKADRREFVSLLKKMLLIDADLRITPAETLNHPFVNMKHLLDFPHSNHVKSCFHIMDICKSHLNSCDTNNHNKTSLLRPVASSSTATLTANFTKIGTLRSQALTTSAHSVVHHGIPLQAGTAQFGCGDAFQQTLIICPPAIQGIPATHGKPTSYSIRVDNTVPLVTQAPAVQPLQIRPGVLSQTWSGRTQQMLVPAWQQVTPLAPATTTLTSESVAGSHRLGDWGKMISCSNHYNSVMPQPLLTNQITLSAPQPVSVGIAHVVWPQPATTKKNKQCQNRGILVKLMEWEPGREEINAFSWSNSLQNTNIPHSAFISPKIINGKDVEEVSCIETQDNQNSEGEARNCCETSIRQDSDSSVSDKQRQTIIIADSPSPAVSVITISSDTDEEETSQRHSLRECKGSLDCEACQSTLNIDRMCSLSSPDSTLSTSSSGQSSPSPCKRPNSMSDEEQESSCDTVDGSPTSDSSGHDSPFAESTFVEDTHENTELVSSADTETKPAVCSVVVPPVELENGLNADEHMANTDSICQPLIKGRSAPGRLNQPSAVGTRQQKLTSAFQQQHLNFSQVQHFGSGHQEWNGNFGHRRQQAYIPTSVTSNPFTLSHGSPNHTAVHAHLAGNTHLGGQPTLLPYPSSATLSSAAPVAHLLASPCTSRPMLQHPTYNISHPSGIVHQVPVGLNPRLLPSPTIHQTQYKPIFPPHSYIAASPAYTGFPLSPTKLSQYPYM
Method in brief: (§2)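 Mobility-shift kinase assay using N-terminal GST-fused, full-length recombinant human enzymes purified by glutathione affinity; incubation one hour at ambient temperature.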

PKCζ = biological target: T10, PKCζ (Homo sapiens, UniProt Q05513); assay: Kinase panel, CaNDY 1 µM; format: biochemical; conditions: CaNDY 1 µM relative to DMSO
T10 construct: purchased Carna Biosciences
Method in brief: as §2

MOS_Cascade = biological target: T11, MOS_Cascade (Homo sapiens, UniProt P00540); assay: Kinase panel, CaNDY 1 µM; format: biochemical; conditions: CaNDY 1 µM relative to DMSO
T11 construct: purchased Carna Biosciences
Method in brief: as §2

MNK1 = biological target: T12, MNK1 (Homo sapiens, UniProt Q9BUB5); assay: Kinase panel, CaNDY 1 µM; format: biochemical; conditions: CaNDY 1 µM relative to DMSO
T12 construct: purchased Carna Biosciences
T12 sequence (Q9BUB5 whole entry): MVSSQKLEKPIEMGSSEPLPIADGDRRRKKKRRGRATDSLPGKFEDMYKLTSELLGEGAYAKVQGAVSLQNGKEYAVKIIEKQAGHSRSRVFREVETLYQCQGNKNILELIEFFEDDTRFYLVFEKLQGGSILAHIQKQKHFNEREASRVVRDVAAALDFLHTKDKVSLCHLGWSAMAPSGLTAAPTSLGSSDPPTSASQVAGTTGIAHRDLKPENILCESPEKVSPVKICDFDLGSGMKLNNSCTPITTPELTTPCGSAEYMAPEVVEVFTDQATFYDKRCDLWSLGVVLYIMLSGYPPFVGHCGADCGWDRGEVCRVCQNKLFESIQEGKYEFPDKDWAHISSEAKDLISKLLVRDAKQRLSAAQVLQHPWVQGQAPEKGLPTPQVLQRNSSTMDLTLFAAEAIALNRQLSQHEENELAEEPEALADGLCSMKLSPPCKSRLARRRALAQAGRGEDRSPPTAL
Method in brief: as §2

## [H]/N=C1/NC(=O)C(=Cc2ccc3c(c2)CCO3)S1 [CaNDY, (Z)-5-[(2,3-dihydrobenzofuran-5-yl)methylene]-2-iminothiazolidin-4-one]
DYRK1B
  IC50: 24.1 nM
DYRK1A
  IC50: 7.9 nM
CaMK2γ
  remaining activity at 1 µM: 101%
IRAK1
  remaining activity at 1 µM: 87.4%
CDC37-nanoKAZ
  inhibition of luminescence activity of CDC37-nanoKAZ: did not inhibit
CRIK
  %Activity: 87.0%
MSK1
  remaining activity at 1 µM: 98.1%
MAP3K2_Cascade
  remaining activity at 1 µM: 102%
CaMK1δ
  remaining activity at 1 µM: 103%
MAP3K4_Cascade
  remaining activity at 1 µM: 101%
MAP2K2_Cascade
  remaining activity at 1 µM: 94.7%
HIPK3
  remaining activity at 1 µM: 22.4%
PKCζ
  remaining activity at 1 µM: 95.9%
MOS_Cascade
  remaining activity at 1 µM: 92.4%
MNK1
  remaining activity at 1 µM: 94.6%
